According to patent US8802597B2, “Herbicidal pyrimidines” (E I du Pont de Nemours and Company, priority 2003, dated 2014):

Columns and labels:
Assay type in all cases: in vivo
[1] = tested on: ducksalad (Heteranthera limosa); assay: Test E flooded paddy water application; conditions: Flood, 21 days, scale 0 to 100 (0 no effect, 100 complete control)
Method in brief: (§1)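 Weeds sown in sterilized Tama silt loam (2.6% organic matter), greenhouse 29.5/26.7° C, 16-h photoperiod; at 2.0–2.5-leaf stage pots flooded to 3 cm and compound added to paddy water. Visual rating vs untreated controls after 21 days, 0 (no effect) to 100 (complete control).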

[2] = tested on: bearded (brdd.) sprangletop (Leptochloa fusca ssp. fascicularis); assay: Test E flooded paddy water application; conditions: Flood, 21 days, scale 0 to 100 (0 no effect, 100 complete control)
Method in brief: as §1

[3] = tested on: early watergrass (Echinochloa oryzoides); assay: Test E flooded paddy water application; conditions: Flood, 21 days, scale 0 to 100 (0 no effect, 100 complete control)
Method in brief: as §1

[4] = tested on: barnyardgrass (Echinochloa crus-galli); assay: Test E flooded paddy water application; conditions: Flood, 21 days, scale 0 to 100 (0 no effect, 100 complete control)
Method in brief: as §1

[5] = tested on: rice flatsedge (Cyperus iria); assay: Test E flooded paddy water application; conditions: Flood, 21 days, scale 0 to 100 (0 no effect, 100 complete control)
Method in brief: as §1

[6] = tested on: late watergrass (Echinochloa oryzicola); assay: Test E flooded paddy water application; conditions: Flood, 21 days, scale 0 to 100 (0 no effect, 100 complete control)
Method in brief: as §1

[7] = tested on: transplanted rice seedlings (Oryza sativa cv. ‘Japonica-M202’); assay: Test E flooded paddy water application; conditions: Flood, 21 days, scale 0 to 100 (0 no effect, 100 complete control)
Method in brief: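 Greenhouse pots of Tama silt loam with weeds and rice at 2.0–2.5-leaf stage, flooded to 3 cm; compounds applied directly into paddy water, depth maintained. Visual rating versus untreated controls after 21 days, 0 (no effect) to 100 (complete control); 29.5/26.7 °C, 16-h photoperiod.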

[8] = tested on: water seeded rice seedlings (Oryza sativa cv. ‘Japonica-M202’); assay: Test E flooded paddy water application; conditions: Flood, 21 days, scale 0 to 100 (0 no effect, 100 complete control)
Method in brief: as §1

[9] = tested on: purple redstem (Ammannia coccinea); assay: Test E flooded paddy water application; conditions: Flood, 21 days, scale 0 to 100 (0 no effect, 100 complete control)
Method in brief: as §1

[10] = tested on: smallflower umbrella sedge (Cyperus difformis); assay: Test E flooded paddy water application; conditions: Flood, 21 days, scale 0 to 100 (0 no effect, 100 complete control)
Method in brief: as §1

[11] = tested on: junglerice (Echinochloa colona); assay: Test E flooded paddy water application; conditions: Flood, 21 days, scale 0 to 100 (0 no effect, 100 complete control)
Method in brief: as §1

[12] = tested on: crabgrass (Digitaria sanguinalis); assay: Test A pre/postemergence
Method in brief: (§2)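 Pre/post greenhouse screen; loam/sand soil; solvent + surfactant formulation; pre = directed soil spray at planting, post = 1–2 leaf plants, 2–10 cm; ~10 d; visual 0–100 rating vs untreated.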

[13] = tested on: giant foxtail (Setaria faberi); assay: Test A pre/postemergence
Method in brief: as §2

[14] = tested on: morningglory (Ipomoea spp.); assay: Test A pre/postemergence
Method in brief: as §2

[15] = tested on: velvetleaf (Abutilon theophrasti); assay: Test A pre/postemergence
Method in brief: as §2

[16] = tested on: redroot pigweed (Amaranthus retroflexus); assay: Test A pre/postemergence
Method in brief: as §2

[17] = tested on: barnyardgrass (Echinochloa crus-galli); assay: Test A pre/postemergence
Method in brief: as §2

[18] = Postemergence, 125 g ai/ha, 0 to 100 scale (0 no effect, 100 complete control)
[19] = Postemergence, 500 g ai/ha, 0 to 100 scale (0 no effect, 100 complete control)
[20] = Preemergence, 125 g ai/ha, 0 to 100 scale where 0 is no effect and 100 is complete control, approximately ten days
[21] = Preemergence, 500 g ai/ha, 0 to 100 scale where 0 is no effect and 100 is complete control, approximately ten days

CCOC(=O)c1nc(-c2ccc(C)c(C)c2)nc(N)c1Cl [Compound 71]
Ducksalad plant response rating ([1]; 32 g ai/ha): 100
Ducksalad plant response rating ([1]; 64 g ai/ha): 100
Ducksalad plant response rating ([1]; 125 g ai/ha): 100
Ducksalad plant response rating ([1]; 250 g ai/ha): 100
Plant response rating, Ducksalad ([1]; 16 g ai/ha): 100
Sprangletop, Brdd. plant response rating ([2]; 32 g ai/ha): 0
Sprangletop, Brdd. plant response rating ([2]; 125 g ai/ha): 0
Sprangletop, Brdd. plant response rating ([2]; 250 g ai/ha): 60
Watergrass, Early plant response rating ([3]; 32 g ai/ha): 0
Watergrass, Early plant response rating ([3]; 64 g ai/ha): 0
Watergrass, Early plant response rating ([3]; 125 g ai/ha): 0
Watergrass, Early plant response rating ([3]; 250 g ai/ha): 0
Plant response rating, Watergrass, Early ([3]; 16 g ai/ha): 0
Barnyardgrass plant response rating ([4]; 32 g ai/ha): 0
Barnyardgrass plant response rating ([4]; 64 g ai/ha): 0
Barnyardgrass plant response rating ([4]; 125 g ai/ha): 0
Barnyardgrass plant response rating ([4]; 250 g ai/ha): 60
Plant response rating, Barnyardgrass ([4]; 16 g ai/ha): 0
Flatsedge, Rice plant response rating ([5]; 32 g ai/ha): 0
Flatsedge, Rice plant response rating ([5]; 64 g ai/ha): 0
Flatsedge, Rice plant response rating ([5]; 125 g ai/ha): 0
Flatsedge, Rice plant response rating ([5]; 250 g ai/ha): 0
Plant response rating, Flatsedge, Rice ([5]; 16 g ai/ha): 0
Watergrass, Late plant response rating ([6]; 32 g ai/ha): 0
Watergrass, Late plant response rating ([6]; 64 g ai/ha): 0
Watergrass, Late plant response rating ([6]; 125 g ai/ha): 0
Watergrass, Late plant response rating ([6]; 250 g ai/ha): 0
Plant response rating, Watergrass, Late ([6]; 16 g ai/ha): 0
Rice, Transplanted plant response rating ([7]; 32 g ai/ha): 0
Rice, Transplanted plant response rating ([7]; 64 g ai/ha): 0
Rice, Transplanted plant response rating ([7]; 125 g ai/ha): 0
Rice, Transplanted plant response rating ([7]; 250 g ai/ha): 0
Plant response rating, Rice, Transplanted ([7]; 16 g ai/ha): 0
Rice, Water Seeded plant response rating ([8]; 32 g ai/ha): 0
Rice, Water Seeded plant response rating ([8]; 64 g ai/ha): 0
Rice, Water Seeded plant response rating ([8]; 125 g ai/ha): 0
Rice, Water Seeded plant response rating ([8]; 250 g ai/ha): 0
Plant response rating, Rice, Water Seeded ([8]; 16 g ai/ha): 0
Redstem plant response rating ([9]; 32 g ai/ha): 0
Redstem plant response rating ([9]; 64 g ai/ha): 0
Redstem plant response rating ([9]; 125 g ai/ha): 0
Redstem plant response rating ([9]; 250 g ai/ha): 30
Plant response rating, Redstem ([9]; 16 g ai/ha): 0
Sedge, Umbrella plant response rating ([10]; 32 g ai/ha): 0
Sedge, Umbrella plant response rating ([10]; 64 g ai/ha): 0
Sedge, Umbrella plant response rating ([10]; 125 g ai/ha): 30
Sedge, Umbrella plant response rating ([10]; 250 g ai/ha): 70
Plant response rating, Sedge, Umbrella ([10]; 16 g ai/ha): 0
Junglerice plant response rating ([11]; 32 g ai/ha): 0
Junglerice plant response rating ([11]; 64 g ai/ha): 0
Junglerice plant response rating ([11]; 125 g ai/ha): 0
Junglerice plant response rating ([11]; 250 g ai/ha): 45
Plant response rating, Junglerice ([11]; 16 g ai/ha): 0
Plant response rating, Crabgrass [12, 18]: 0
Plant response rating, Crabgrass [12, 19]: 5
Plant response rating, Crabgrass [12, 20]: 0
Plant response rating, Crabgrass [12, 21]: 0
Plant response rating, Foxtail, Giant [13, 18]: 0
Plant response rating, Foxtail, Giant [13, 19]: 0
Plant response rating, Foxtail, Giant [13, 20]: 0
Plant response rating, Foxtail, Giant [13, 21]: 0
Plant response rating, Morningglory [14, 18]: 0
Plant response rating, Morningglory [14, 19]: 0
Plant response rating, Morningglory [14, 20]: 0
Plant response rating, Morningglory [14, 21]: 0
Plant response rating, Velvetleaf [15, 18]: 40
Plant response rating, Velvetleaf [15, 19]: 55
Plant response rating, Velvetleaf [15, 20]: 30
Plant response rating, Velvetleaf [15, 21]: 50
Plant response rating, Pigweed [16, 18]: 5
Plant response rating, Pigweed [16, 19]: 30
Plant response rating, Pigweed [16, 20]: 0
Plant response rating, Pigweed [16, 21]: 15
Plant response rating, Barnyardgrass [17, 18]: 0
Plant response rating, Barnyardgrass [17, 19]: 0
Plant response rating, Barnyardgrass [17, 20]: 0
Plant response rating, Barnyardgrass [17, 21]: 0
